Source: PubChem BioAssay (NCI)
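Five concentrations, 48 hours, 96-well plates. Abbreviation: GI50, concentration required for 50% inhibition of growth. Definition used: TGI = concentration required for complete inhibition of growth.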

How the values were obtained:
Assay in all cases: NCI tumour cell line growth inhibition, 48 h
[1] = system: 786-0 renal
[2] = system: MOLT-4 leukemia
[3] = system: A549 NSCLC
[4] = system: A498 renal
[5] = system: HOP-62 NSCLC
[6] = system: MALME-3M melanoma
[7] = system: CCRF-CEM leukemia
[8] = system: DU-145 prostate
[9] = system: CAKI-1 renal
[10] = system: SK-OV-3 ovarian

SMILES | GI50 [1] | TGI [1] | GI50 [2] | TGI [2] | GI50 [3] | TGI [3] | GI50 [4] | TGI [4] | GI50 [5] | GI50 [6] | TGI [6] | GI50 [7] | TGI [7] | GI50 [8] | TGI [8] | TGI [9] | TGI [5] | TGI [10] | GI50 [9] | GI50 [10]
N/C(=N\c1nc2ccccc2s1)NC(=O)Nc1cccc2ccccc12 | 0.603 µM | > 94.8 µM | 0.472 µM | > 100 µM | 0.436 µM | > 100 µM | 0.347 µM | 3.72 µM | 0.406 µM | 1.24 µM | > 100 µM | 0.36 µM | > 100 µM | 0.356 µM | 4.2 µM | – | – | – | – | –
O=CN1CCN(C=S)CC1 | – | > 100 µM | – | > 100 µM | – | > 100 µM | – | > 100 µM | – | – | > 100 µM | – | > 100 µM | – | – | > 100 µM | > 100 µM | > 100 µM | – | –
NC(=O)c1c2c(cc3c(=O)c4ccccc4[nH]c13)CCCC2 | – | > 100 µM | – | > 80.7 µM | – | > 100 µM | – | > 100 µM | – | – | > 100 µM | – | 98.7 µM | – | – | > 100 µM | > 100 µM | > 100 µM | – | –
COc1cc2c3c(n(CCCNCCNCCCN)c(=O)c2cc1OC)-c1cc2c(cc1C3=O)OCO2 | 3.24 µM | 14.5 µM | – | – | 10.8 µM | > 100 µM | – | – | 2.88 µM | – | – | – | – | 4.6 µM | 17 µM | 24.1 µM | 15.6 µM | > 100 µM | 5.68 µM | 8.08 µM
CCC[CH2][Sn]1([CH2]CCC)[O]C(=O)CN=Cc2ccccc2[O]1 | 0.517 µM | 1.73 µM | 0.212 µM | 0.75 µM | 1.81 µM | 3.55 µM | – | – | 4.01 µM | 0.141 µM | 0.469 µM | – | – | – | – | 0.631 µM | > 100 µM | 2.18 µM | 0.182 µM | 0.922 µM
CC1CC2(CCC1OCc1ccccc1)OCCO2 (stereo not drawn) | – | > 100 µM | – | > 100 µM | – | > 100 µM | – | > 100 µM | – | – | > 100 µM | – | > 100 µM | – | – | > 100 µM | > 100 µM | > 100 µM | – | –
COc1cc(OC)cc(-c2cncn2-c2ccc(-c3nc4cc(OC)cc(OC)c4s3)cc2)c1 | 7.6 µM | > 100 µM | – | – | – | – | 3.15 µM | > 100 µM | 6.65 µM | – | – | – | – | > 100 µM | > 100 µM | > 100 µM | 34.5 µM | > 100 µM | 2.13 µM | 4.69 µM
O=C1C=CC(=O)c2c1ncc1c2nc2sccn21 | 15.5 µM | 36.3 µM | 3.57 µM | > 100 µM | 52.4 µM | > 100 µM | – | – | 21.2 µM | 12.7 µM | 26.5 µM | 2.07 µM | 6.62 µM | 12.8 µM | 40 µM | 42.5 µM | 47.4 µM | > 100 µM | 19.5 µM | 98.3 µM
NC1=NC(c2ccc(F)cc2)C2=C(N1)c1ccc3ccccc3c1OCC2 (stereo not drawn) | 79.7 µM | > 100 µM | – | – | 18.7 µM | > 100 µM | 10.8 µM | > 100 µM | 23.5 µM | 18.5 µM | > 100 µM | – | – | > 100 µM | > 100 µM | 70.6 µM | > 100 µM | > 100 µM | 12.3 µM | 26.8 µM
CC1=CC2CC(C)C1(C)CCc1ccoc12 (stereo not drawn) | – | > 100 µM | – | > 100 µM | – | > 100 µM | – | > 100 µM | – | – | > 100 µM | – | > 100 µM | – | – | > 100 µM | > 100 µM | > 100 µM | – | –
OCc1ccc(Oc2c3ccccc3nc3occc23)cc1 | 33.9 µM | > 100 µM | 21 µM | 47.2 µM | 36.5 µM | > 100 µM | – | – | 30.4 µM | – | – | 31.3 µM | > 100 µM | 33.6 µM | > 100 µM | 35.8 µM | > 100 µM | > 100 µM | 18.1 µM | 36.8 µM
COC(=O)C1=Cc2c(cc(OC)c(OC)c2OC)[C@H](c2ccc(OC)c(OC)c2OC)C1C(=O)OC (stereo partly drawn) | – | > 100 µM | – | > 100 µM | – | > 100 µM | – | > 100 µM | – | – | > 100 µM | – | > 100 µM | – | – | > 100 µM | > 100 µM | > 100 µM | – | –
CC(C)=CC1CC(C)C2(CCC3(C)CC4C(C(=O)CC4(C)O)/C(C=O)=C\CC32)O1 (stereo not drawn) | – | 0.0438 µM | – | 0.0483 µM | – | 0.215 µM | – | 0.979 µM | – | – | – | – | 0.0422 µM | – | 0.267 µM | 0.192 µM | 0.274 µM | 0.297 µM | – | –
Cc1c(O)c(=O)ccn1CCO | – | > 100 µM | – | > 100 µM | – | > 100 µM | – | > 100 µM | – | – | > 100 µM | – | > 100 µM | – | – | > 100 µM | > 100 µM | > 100 µM | – | –
COc1ccccc1NC(=O)C1=C(C)NC(C)=C(C(=O)Nc2ccccc2OC)C1c1cccc2c1OCO2 | – | > 100 µM | – | > 100 µM | – | > 100 µM | – | > 100 µM | – | – | > 100 µM | – | > 100 µM | – | – | > 100 µM | > 100 µM | > 100 µM | – | –
CCOC(=O)C(=O)Nc1ccc(Cl)c(C(F)(F)F)c1 | – | > 100 µM | – | > 100 µM | – | > 100 µM | – | – | – | – | > 100 µM | – | > 100 µM | – | – | > 100 µM | > 100 µM | > 100 µM | – | –
COc1ccc(/C=C\c2cc(OC)c(OC)c(OC)c2)cc1OCC(=O)Nc1nc2ccc(OC(F)(F)F)cc2s1 | 54.3 µM | > 100 µM | 4.21 µM | > 100 µM | 6 µM | > 100 µM | 3.61 µM | > 100 µM | 7.09 µM | – | – | 4.12 µM | > 100 µM | 4.11 µM | > 100 µM | > 100 µM | > 100 µM | > 100 µM | 4.6 µM | 8.42 µM
c1cncc(CNc2ncn[nH]2)c1 | – | > 100 µM | – | > 100 µM | – | > 100 µM | – | > 100 µM | – | – | > 100 µM | – | – | – | > 100 µM | > 100 µM | > 100 µM | > 100 µM | – | –
Cc1ccc(F)cc1NC(=O)c1cc(Cl)ccc1Nc1ccccc1 | 52.1 µM | > 100 µM | 37.9 µM | > 100 µM | > 100 µM | > 100 µM | – | – | 79 µM | > 100 µM | > 100 µM | 20.2 µM | > 100 µM | > 100 µM | > 100 µM | > 100 µM | > 100 µM | > 100 µM | > 100 µM | > 100 µM
